Results taken from ChEMBL document CHEMBL3046051, “A novel approach to the synthesis of 1,2,3-triazoles and their SAR studies” (2010).

Tests used:
Format in all cases: functional
Aspergillus flavus [1] = test: Antifungal activity against Aspergillus flavus 871 by paper disk method relative to voriconazole
Wickerhamiella azyma [2] = test: Antifungal activity against Candida azyma 1452 by paper disk method relative to voriconazole
Aspergillus niger [3] = test: Antifungal activity against Aspergillus niger 281 by paper disk method relative to voriconazole
Candida albicans [4] = test: Antifungal activity against Candida albicans 227 by paper disk method relative to voriconazole
Aspergillus flavus [5] = test: Antifungal activity against Aspergillus flavus 871 by paper disk method
Wickerhamiella azyma [6] = test: Antifungal activity against Candida azyma 1452 by paper disk method
Aspergillus niger [7] = test: Antifungal activity against Aspergillus niger 281 by paper disk method
Candida albicans [8] = test: Antifungal activity against Candida albicans 227 by paper disk method

SMILES	inhibition (INH) (Aspergillus flavus [1]) [%]	inhibition (INH) (Wickerhamiella azyma [2]) [%]	inhibition (INH) (Aspergillus niger [3]) [%]	inhibition (INH) (Candida albicans [4]) [%]	inhibition zone (IZ) (Aspergillus flavus [5]) [mm]	inhibition zone (IZ) (Wickerhamiella azyma [6]) [mm]	inhibition zone (IZ) (Aspergillus niger [7]) [mm]	inhibition zone (IZ) (Candida albicans [8]) [mm]
C=CN1C(C)=C(C(C)=O)NN1c1cccc(Cl)c1	-73.33	-86.67	-100	-93.75				
C[C@@H](c1ncncc1F)[C@](O)(Cn1cncn1)c1ccc(F)cc1F [VORICONAZOLE]					15	15	18	16
C=CN1C(C)=C(C(C)=O)NN1c1ccc(Cl)cc1	-66.67	-80	-94.44	-87.5				
C=CN1C(C)=C(C(C)=O)NN1c1ccc([N+](=O)[O-])cc1	20	6.67	-27.78	0				
C=CN1C(C)=C(C(C)=O)NN1c1cccc(C)c1	-46.67	-60	-72.22	-62.5				
C=CN1C(C)=C(C(C)=O)NN1c1ccc(O)cc1	46.67	33.33	16.67	25				
C=CN1C(C)=C(C(C)=O)NN1c1ccc(C(=O)O)cc1	33.33	6.67	-11.11	6.25				
C=CN1C(C)=C(C(C)=O)NN1c1cccc(OC)c1	-26.67	-40	-50	-43.75				
C=CN1C(C)=C(C(C)=O)NN1c1ccccc1	-13.33	-26.67	-33.33	-31.25				
C=CN1C(C)=C(C(C)=O)NN1c1cccc(O)c1	40	26.67	11.11	18.75				
C=CN1C(C)=C(C(C)=O)NN1c1ccc(OC)cc1	-20	-33.33	-44.44	-37.5				
C=CN1C(C)=C(C(C)=O)NN1c1ccc(C)cc1	-40	-53.33	-66.67	-56.25				
C=CN1C(C)=C(C(C)=O)NN1c1cccc([N+](=O)[O-])c1	13.33	0	-33.33	-6.25				
